Results reported in the NIST ThermoML archive (doi:10.1021/acs.jced.5b00582).
Numbers after ± are expanded uncertainties.

Legend:
[1] = refractive index (Na D-line) (dimensionless); conditions: 298.15 K; 101.33 kPa; Liquid; Standard Abbe refractometry
[2] = Liquid; for mass density: 298.15 K, 101.33 kPa, Pycnometric method; for vapor or sublimation pressure: Ebulliometric method (Recirculating still)

In the case of `COCCOC` [1,2-dimethoxyethane], the refractive index [1] is reported as 1.378 ± 0.0004, the mass density [2] is reported as 860.4 ± 0.3 kg/m3 and the “vapor or sublimation pressure” value ([2]; 357.71 K) is reported as 101.3 ± 0.86 kPa.

For `CCC(C)OC(C)=O` (configuration not stated) [1-methylpropyl ethanoate], the refractive index [1] was 1.3872 ± 0.0004, the mass density [2] was 863.8 ± 0.3 kg/m3 and the “vapor or sublimation pressure” value ([2]; 385.12 K) was 101.3 ± 0.86 kPa.

With `COCCO` [2-methoxyethan-1-ol] the refractive index [1] was 1.4002 ± 0.0004, the mass density [2] was 960.1 ± 0.3 kg/m3 and the “vapor or sublimation pressure” value ([2]; 397.48 K) was 101.3 ± 0.86 kPa.

With `CCC(C)=O` [butanone] the refractive index [1] was 1.3761 ± 0.0004, the mass density [2] was 799.7 ± 0.3 kg/m3 and the “vapor or sublimation pressure” value ([2]; 352.76 K) was 101.3 ± 0.86 kPa.
